Experimental data published in PubChem BioAssay AID2060351 (Molecular Pharmacology Branch, DTP, NCI, 2025).

Test system: 521955-158-R7-J2-PDC spheroids, viability % test/control
Assay: Anticancer human tumor 521955-158-R7-J2-PDC patient-derived pancreatic carcinoma cell line growth inhibition [TAK]
Conditions: spheroids with HUVEC and MSC; for IC50: curve of first compound; for viability, T/C: stronger effect = lower value; active = viability on the fitted dose curve at most 10% of control; inactive = the rest
From the text: Combinatorial screen of targeted agents with TAK-243 and ipatasertib in multi-cell type tumor spheroids
A high-throughput screen of multi-cell type tumor spheroids was designed to identify active combinations of targeted small molecules and TAK-243 or ipatasertib. Complex spheroids include a stromal component modeled by human endothelial cells (HUVEC) and fibroblasts modeled by human mesenchymal stem cells (MSCs). The concentration ranges selected for each drug and investigational agent were based upon clinically achievable concentrations if the clinical Cmax of the agent was known.
Compounds. The drugs and investigational agents: TAK-243 (785004), ipatasertib (767898), everolimus (733504), selumetinib (741078), bortezomib (756655), trametinib (758246), ixazomib (758254), vemurafenib (761431), dabrafenib (764134), sapanisertib (764658), alpelisib (765974), and copanlisib (816437), were obtained from the National Cancer Institute (NCI) Developmental Therapeutics Program Chemical Repository. The FDA-approved anticancer drug set is available from the NCI Developmental Therapeutics Program. […] The stock solutions were prepared in dimethyl sulfoxide (DMSO, Sigma-Aldrich, St. Louis, MO, cat. D2650) at 800-fold the tested concentration and stored at -70 degrees C prior to their use. All drugs and investigational agents were tested over a range starting from a high concentration at or near the clinical Cmax and decreasing in half-log increments. If the clinical Cmax for an agent had not been determined, the highest concentration tested was 10 microM.
NCI60 Cell Culture. NCI60 cell lines were obtained from the NCI Developmental Therapeutics Program Tumor Repository. For each lot of cells, the Repository performed Applied Biosystems AmpFLSTR Identifiler testing with PCR amplification to confirm consistency with the published Identifier STR profile for each cell line. Cells were kept in continuous culture for no more than 20 passages. The optimal seeding densities for each of the cell lines at each time point assessed were determined prior to performing the concentration response studies. Briefly, the NCI60 human tumor lines were grown as monolayers in RPMI 1640 medium supplemented with 10% FBS and 2 mmol/L L-glutamine.
An additional 2 lines were from the NCI60 cell line panel including melanomas, MALME-3M and SK-MEL-2. Pooled donor human umbilical vein endothelial cells (HUVEC, Lonza, cat. CC-2519) and human mesenchymal stem cells (hMSC, Lonza, cat. PT-2501) were purchased from Lonza (Walkersville, MD).
PDMR cell lines were grown in complete medium (DC medium): Dulbecco's modified Eagle's medium (DMEM)/F12 supplemented with 5% fetal bovine serum (FBS), 2 mM L-glutamine, 100 U/mL penicillin and 100 µg/ml streptomycin, 0.4 µg/ml hydrocortisone, 10 ng/ml epidermal growth factor (EGF) recombinant human protein, 24 µg/mL adenine, and 0.1 mg/mL primocin. During culture from frozen stock vials, PDMR cells were cultured in the same medium containing 10 µM Y-27632 (see Table 3). The PDCs were cultured in complete DMEM/F12 media without 10 microM Y-27632 dihydrochloride for at least two passages prior to the screen. The pooled donor HUVEC and hMSC were cultured in endothelial cell growth medium 2 (PromoCell, Heidelberg, Germany, cat. C-22011) and mesenchymal stem cell growth medium 2 (PromoCell, cat. C-28009), respectively. For all experiments, HUVEC and hMSC were used at passages </=5.
For the pre-screen, cell seeding densities were determined from a titration spanning the range from 5,000 to 313 cells per well. The mct-spheroids including 60% malignant cells, 25% HUVEC and 15% MSC dispensed as a mixture into U-bottom Ultra-Low Attachment 384-well plates (Corning, NY)
High-throughput Drug Combination Screening.
Prior to their inoculation into 384-well plates, malignant cells, HUVEC, and hMSC were removed from T flasks using TrypLE express (Thermo Fisher Scientific, cat. 12605036) and harvested by centrifugation for 5 min at 233 x g. […]
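Also: spheroids exposed to compound for 7 days before readout.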

COC1CC2CCC(C)C(O)(O2)C(=O)C(=O)N2CCCCC2C(=O)OC(C(C)CC2CCC(OCCO)C(OC)C2)CC(=O)C(C)C=C(C)C(O)C(OC)C(=O)C(C)CC(C)C=CC=CC=C1C (stereo not given) + CC(C)NCC(C(=O)N1CCN(c2ncnc3c2C(C)CC3O)CC1)c1ccc(Cl)cc1
inactive: viability, T/C (second compound 0.3 µM, first compound 0.000316 µM) 103% | viability, T/C (second compound 0.3 µM, first compound 0.001 µM) 72.1% | viability, T/C (second compound 0.3 µM, first compound 0.00316 µM) 71.6% | viability, T/C (second compound 0.3 µM, first compound 0.01 µM) 102% | viability, T/C (second compound 0.3 µM, first compound 0.0316 µM) 110% | viability, T/C (second compound 0.3 µM, first compound 0.1 µM) 115% | viability, T/C (second compound 0.949 µM, first compound 0.000316 µM) 81.6% | viability, T/C (second compound 0.949 µM, first compound 0.001 µM) 73.5% | viability, T/C (second compound 0.949 µM, first compound 0.00316 µM) 100% | viability, T/C (second compound 0.949 µM, first compound 0.01 µM) 91% | viability, T/C (second compound 0.949 µM, first compound 0.0316 µM) 111% | viability, T/C (second compound 0.949 µM, first compound 0.1 µM) 85.9% | viability, T/C (second compound 3 µM, first compound 0.000316 µM) 84.7% | viability, T/C (second compound 3 µM, first compound 0.001 µM) 89.1% | viability, T/C (second compound 3 µM, first compound 0.00316 µM) 74.7% | viability, T/C (second compound 3 µM, first compound 0.01 µM) 89.5% | viability, T/C (second compound 3 µM, first compound 0.0316 µM) 104% | viability, T/C (second compound 3 µM, first compound 0.1 µM) 93.7% | viability, T/C (second compound 9.49 µM, first compound 0.000316 µM) 86.2% | viability, T/C (second compound 9.49 µM, first compound 0.001 µM) 86.3% | viability, T/C (second compound 9.49 µM, first compound 0.00316 µM) 82.2% | viability, T/C (second compound 9.49 µM, first compound 0.01 µM) 85.8% | viability, T/C (second compound 9.49 µM, first compound 0.0316 µM) 106% | viability, T/C (second compound 9.49 µM, first compound 0.1 µM) 105% | viability, T/C (second compound 30 µM, first compound 0.000316 µM) 90.3% | viability, T/C (second compound 30 µM, first compound 0.001 µM) 108% | viability, T/C (second compound 30 µM, first compound 0.00316 µM) 98.2% | viability, T/C (second compound 30 µM, first compound 0.01 µM) 106% | viability, T/C (second compound 30 µM, first compound 0.0316 µM) 104% | viability, T/C (second compound 30 µM, first compound 0.1 µM) 116%
> 100 nM: IC50 (second compound 0.3 µM) | IC50 (second compound 0.949 µM) | IC50 (second compound 3 µM) | IC50 (second compound 9.49 µM) | IC50 (second compound 30 µM)

Cn1cnc2c(F)c(Nc3ccc(Br)cc3Cl)c(C(=O)NOCCO)cc21 + CC(C)NCC(C(=O)N1CCN(c2ncnc3c2C(C)CC3O)CC1)c1ccc(Cl)cc1
108 nM: IC50 (second compound 0.3 µM)
65 nM: IC50 (second compound 0.949 µM)
33.9 nM: IC50 (second compound 3 µM)
inactive: viability, T/C (second compound 0.3 µM, first compound 0.00949 µM) 71.3% | viability, T/C (second compound 0.3 µM, first compound 0.03 µM) 61.7% | viability, T/C (second compound 0.3 µM, first compound 0.0949 µM) 45.6% | viability, T/C (second compound 0.3 µM, first compound 0.3 µM) 45.5% | viability, T/C (second compound 0.3 µM, first compound 0.949 µM) 28.2% | viability, T/C (second compound 0.3 µM, first compound 3 µM) 13.9% | viability, T/C (second compound 0.949 µM, first compound 0.00949 µM) 76.7% | viability, T/C (second compound 0.949 µM, first compound 0.03 µM) 55.5% | viability, T/C (second compound 0.949 µM, first compound 0.0949 µM) 46.3% | viability, T/C (second compound 0.949 µM, first compound 0.3 µM) 31.3% | viability, T/C (second compound 0.949 µM, first compound 0.949 µM) 25.5% | viability, T/C (second compound 0.949 µM, first compound 3 µM) 9.79% | viability, T/C (second compound 3 µM, first compound 0.00949 µM) 63.9% | viability, T/C (second compound 3 µM, first compound 0.03 µM) 54.7% | viability, T/C (second compound 3 µM, first compound 0.0949 µM) 32.4% | viability, T/C (second compound 3 µM, first compound 0.3 µM) 31.5% | viability, T/C (second compound 3 µM, first compound 0.949 µM) 23.7% | viability, T/C (second compound 3 µM, first compound 3 µM) 9.02% | viability, T/C (second compound 9.49 µM, first compound 0.00949 µM) 61.8% | viability, T/C (second compound 9.49 µM, first compound 0.03 µM) 40.4% | viability, T/C (second compound 9.49 µM, first compound 0.0949 µM) 34% | viability, T/C (second compound 9.49 µM, first compound 0.3 µM) 27.5% | viability, T/C (second compound 9.49 µM, first compound 0.949 µM) 25.7% | viability, T/C (second compound 9.49 µM, first compound 3 µM) 10.8% | viability, T/C (second compound 30 µM, first compound 0.00949 µM) 56.6% | viability, T/C (second compound 30 µM, first compound 0.03 µM) 43.3% | viability, T/C (second compound 30 µM, first compound 0.0949 µM) 34.6% | viability, T/C (second compound 30 µM, first compound 0.3 µM) 30% | viability, T/C (second compound 30 µM, first compound 0.949 µM) 17.6%
17.4 nM: IC50 (second compound 30 µM)
19.9 nM: IC50 (second compound 9.49 µM)
active: viability, T/C (second compound 30 µM, first compound 3 µM) 7.96%
